Results on 1 molecule are retold here after paper PMC5462101 (Future medicinal chemistry, 2015).

The structures appear in SMILES notation. Several values for one entry are separate records, joined by “and”; a condition that tells them apart may be missing. Equal entries are not always repeated.

Assay [1] in a line: Reducing ability in DPPH assay. Conditions: compound 100 μM. How it is done: Previous work has shown that pterins, their dihydro- and their tetrahydro-derivatives can each be antioxidants or pro-oxidants, depending on the particular conditions. In the present study, several assays were used to assess in vitro antioxidant activity in order to obtain representative information; each method involves the generation of a different radical.
Determination of reducing activity using 1,1-diphenyl-2-picrylhydrazyl radical (DPPH)
To a solution of DPPH in absolute ethanol was added an equal volume of the compound to be tested dissolved in DMSO (20 µL). From a stock solution (10 mM) was prepared a final solution of 100 µM for evaluation of the compounds. The absorbance at 517 nm was recorded after 20 and 60 min at room temperature (Table 2).
(Loss of DPPH colour is used to gauge radical scavenging.)

In another assay the test system is rat model of colitis. Nature of the assay: Acetic acid-induced colitis in the rat. It is filed as in vivo, Fisher 344 rats. Conditions: 0.01 mmol/kg intrarectally, 4% acetic acid. The protocol:
LOX has also been associated with inflammation and ulcerative colitis. In the present study, a model for colitis involving intracolonic administration of aqueous 4% acetic acid in the rat was used, leading to acute inflammatory reaction. Treated rats presented partial to diffuse petechial bleeding, single erosion and limited ulceration indicating an overall healing effect of the compounds. Substituted pteridines presenting a satisfactory combination of activities 5a, 18a, 18d and 18f were tested using this in vivo model characterized by diffuse exfoliated mucosa as well as multiple and extended erosion and ulcers of the colon (Table 3). No mortality was encountered.
(§1) Fisher 344 rats (150-200 g) were housed in wire-mesh cages, given standard laboratory chow and tap water ad libitum and acclimatized for one week before experiments. Rats were randomly assigned to experimental groups. All in vivo experiments conform to the law for the protection of experimental animals (Republic of Greece) and are registered at the Veterinary Administration of the Republic of Greece in accordance with recognized guidelines on animal experimentation including Directive 2010/63/EU.
Induction of colitis
Rats were anesthetized using pentobarbital (50 mg/kg ip) prior to administration with 1 mL of either vehicle (0.9% w/v saline) or the compound under study at doses 0.01mmol/kg intrarectally via a polyethylene cannula (fitted to a 1 mL syringe) with the tip inserted approximately 8 cm into the anus. Following 30 min pretreatment, 1 ml of 4% acetic acid was introduced into the colon intrarectally and, after exposure for 60 s, the excess fluid was withdrawn. The luminal content was then expelled by instillation of air (10 mL), the ligature was removed and the abdomen was sutured. Both groups of rats were allowed to recover with food and water and the resulting injury was assessed after 48 h. The experiment was conducted using two groups, each containing 3 animals.
Assessment of colonic damage. Rats were weighed, inspected for the presence of diarrhea and sacrificed using diethyl ether. The colons were excised and opened longitudinally, rinsed with cold saline, pinned out and observed under a dissecting microscope. Colonic damage was scored using the system of MacPherson and Pfeiffer: 0 – normal appearance, 1- hyperaemia, 2 – patchy petechial bleeding, 3 – diffuse petechial bleeding, 4 – partial exfoliated mucosa or single erosion or ulceration, 5 – diffuse exfoliated mucosa or multiple erosions or ulceration. The presence or absence of adhesions between the colon and the surrounding tissues was recorded. Scoring of the colonic damage (Table 4) was carried out by an observer unaware of the treatment.

Assay [2] concerns carrageenin-induced rat paw edema. In words: Inhibition of carrageenin-induced rat paw edema. It is filed as in vivo, Fisher 344 rats. How it is done: The incipient pattern of this edema is characterized by the effects of histamine and 5-hydroxytryptamine. After 1 h, reduction of edema in the rat paw achieved by the pteridine 18f was appreciably greater than the reduction induced by the reference compound indomethacin, a nonselective COX-inhibitor and commonly used nonsteroidal anti-inflammatory drug. Thus, 18f and some related pteridines offer significant protection against reactive oxygen species produced in a model of colitis, probably on account of their properties as antioxidants and radical scavengers.
as §1
Inhibition of carrageenin-induced edema
Edema was induced in the right hind paw of Fisher 344 rats (150-200 g) by intradermal injection of aqueous carrageenin (0.1 mL, 2%). Pregnant females were excluded from the study, but both sexes were used. Each group comprised 6-15 rats which were bred and housed under standard conditions and received a diet of commercial food pellets and water ad libitum during maintenance but were entirely fasted during the experiment period. Each compound (0.01 mmol/kg body weight) was suspended in water to which had been added a few drops of Tween 80 and then the mixture was ground in a mortar prior to being administered intraperitoneally and simultaneously with the carrageenin injection. Rats were euthanized 1 h after injection, and the difference between the weight of the injected and non-injected paws was calculated for each animal. The change in paw weight was compared with that in control animals (treated with water) and the inhibition of the edema was expressed as a percentage (Table 4). […]
On the technique in general: In the carrageenan paw model, swelling and tenderness develop within hours.

In the case of `CN1CCN(c2nc(NCc3cccs3)c3nccnc3n2)CC1` [Compound 18f, 2-(4-methylpiperazin-1-yl)-N-(thiophen-2-ylmethyl)pteridin-4-amine], the “RA (%) 100μM 20 min” value in assay [1] (20 min) stood at 6%. In assay [1] (60 min), the “RA (%) 100μM 60 min” value came to 4%. Besides, the “Change in body weight (%)” value in the assay with rat model of colitis (assessed after 48 h) was -10.7%. Also, in the assay with rat model of colitis (colonic damage score, 48 h), the “Score (levels 0–5)” value is given as “All rats exhibited partial to diffuse exfoliated mucosa or single/multiple erosion or ulceration (4–5)”. In addition, the “Greater reduction of edema in rat paw than indomethacin” value in assay [2] (0.01 mmol/kg, relative to indomethacin) came out at 60%. Moreover, in assay [2] (rat, 0.01 mmol/kg intraperitoneally, 1 h, mean of two experiments), the “Reduction of rat paw edema after 1 h (%)” value is 41% and 41 ^† %.
